What was measured:
Test in all cases: relative viability (nuclei count vs DMSO), 5 days (fraction); higher = more cells survive
NCI-H522 = tested on: NCI-H522
How it was run: (§1)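 A single step with final 0.05% Triton X-100, 1% formaldehyde and 1 ug/ml Hoechst fixed the cells and stained nuclei 5 days after treatment. Lung cancer cell lines in 1536-well plates had been treated by pin tool the day after seeding with one drug alone or a fixed anchor-drug dose plus five library-drug doses (not always all listed) in √10 steps, and nuclei were counted on 4× images. Relative viability is the ratio of nuclei in treated wells to nuclei in vehicle wells, taken as the median of duplicate plates.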

LCLC-103H = tested on: LCLC-103H
How it was run: as §1

NCI-H727 = tested on: NCI-H727
How it was run: as §1

SK-MES-1 = tested on: SK-MES-1
How it was run: as §1

NCI-H1355 = tested on: NCI-H1355
How it was run: as §1

NCI-H1915 = tested on: NCI-H1915
How it was run: as §1

NCI-H520 = tested on: NCI-H520
How it was run: as §1

LXF-289 = tested on: LXF-289
How it was run: as §1

PC-14 = tested on: PC-14
How it was run: as §1

NCI-H322M = tested on: NCI-H322M
How it was run: as §1

NCI-H460 = tested on: NCI-H460
How it was run: as §1

NCI-H596 = tested on: NCI-H596
How it was run: as §1

RERF-LC-KJ = tested on: RERF-LC-KJ
How it was run: as §1

NCI-H1792 = tested on: NCI-H1792
How it was run: as §1

NCI-H2347 = tested on: NCI-H2347
How it was run: as §1

NCI-H1651 = tested on: NCI-H1651
How it was run: as §1

NCI-H3122 = tested on: NCI-H3122
How it was run: as §1

NCI-H661 = tested on: NCI-H661
How it was run: as §1

NCI-H1755 = tested on: NCI-H1755
How it was run: as §1

SW 900 = tested on: SW 900
How it was run: as §1

NCI-H441 = tested on: NCI-H441
How it was run: as §1

SMILES: CCN(CC)CCCCNc1ncc2cc(-c3cc(OC)cc(OC)c3)c(NC(=O)NC(C)(C)C)nc2n1 + O=C(c1cc(Cc2n[nH]c(=O)c3ccccc23)ccc1F)N1CCN(C(=O)C2CC2)CC1 [Olaparib] (partner 8 µM)
- relative viability (NCI-H522; first compound 0.01 µM): 0.687
- relative viability (NCI-H522; first compound 0.03162 µM): 0.544
- relative viability (NCI-H522; first compound 0.1 µM): 0.708
- relative viability (NCI-H522; first compound 0.3162 µM): 0.85
- relative viability (NCI-H522; first compound 1 µM): 0.663
- relative viability (LCLC-103H; first compound 0.01 µM): 0.813
- relative viability (LCLC-103H; first compound 0.03162 µM): 0.788
- relative viability (LCLC-103H; first compound 0.1 µM): 0.888
- relative viability (LCLC-103H; first compound 0.3162 µM): 0.833
- relative viability (LCLC-103H; first compound 1 µM): 0.567
- relative viability (NCI-H727; first compound 0.01 µM): 0.674
- relative viability (NCI-H727; first compound 0.03162 µM): 0.504
- relative viability (NCI-H727; first compound 0.1 µM): 0.671
- relative viability (NCI-H727; first compound 0.3162 µM): 0.585
- relative viability (NCI-H727; first compound 1 µM): 0.741
- relative viability (SK-MES-1; first compound 0.01 µM): 0.913
- relative viability (SK-MES-1; first compound 0.03162 µM): 0.752
- relative viability (SK-MES-1; first compound 0.1 µM): 0.863
- relative viability (SK-MES-1; first compound 0.3162 µM): 0.735
- relative viability (SK-MES-1; first compound 1 µM): 0.727
- relative viability (NCI-H1355; first compound 0.01 µM): 0.789
- relative viability (NCI-H1355; first compound 0.03162 µM): 0.719
- relative viability (NCI-H1355; first compound 0.1 µM): 0.853
- relative viability (NCI-H1355; first compound 0.3162 µM): 0.83
- relative viability (NCI-H1355; first compound 1 µM): 0.737
- relative viability (NCI-H1915; first compound 0.01 µM): 0.234
- relative viability (NCI-H1915; first compound 0.03162 µM): 0.291
- relative viability (NCI-H1915; first compound 0.1 µM): 0.239
- relative viability (NCI-H1915; first compound 0.3162 µM): 0.245
- relative viability (NCI-H1915; first compound 1 µM): 0.222
- relative viability (NCI-H520; first compound 0.01 µM): 0.367
- relative viability (NCI-H520; first compound 0.03162 µM): 0.377
- relative viability (NCI-H520; first compound 0.1 µM): 0.318
- relative viability (NCI-H520; first compound 0.3162 µM): 0.272
- relative viability (NCI-H520; first compound 1 µM): 0.261
- relative viability (LXF-289; first compound 0.01 µM): 1.14
- relative viability (LXF-289; first compound 0.03162 µM): 1.11
- relative viability (LXF-289; first compound 0.1 µM): 1.25
- relative viability (LXF-289; first compound 0.3162 µM): 1.1
- relative viability (LXF-289; first compound 1 µM): 1.08
- relative viability (PC-14; first compound 0.01 µM): 0.318
- relative viability (PC-14; first compound 0.03162 µM): 0.341
- relative viability (PC-14; first compound 0.1 µM): 0.292
- relative viability (PC-14; first compound 0.3162 µM): 0.278
- relative viability (PC-14; first compound 1 µM): 0.236
- relative viability (NCI-H322M; first compound 0.01 µM): 0.784
- relative viability (NCI-H322M; first compound 0.03162 µM): 0.638
- relative viability (NCI-H322M; first compound 0.1 µM): 0.745
- relative viability (NCI-H322M; first compound 0.3162 µM): 0.82
- relative viability (NCI-H322M; first compound 1 µM): 0.76
- relative viability (NCI-H460; first compound 0.01 µM): 0.462
- relative viability (NCI-H460; first compound 0.03162 µM): 0.514
- relative viability (NCI-H460; first compound 0.1 µM): 0.52
- relative viability (NCI-H460; first compound 0.3162 µM): 0.57
- relative viability (NCI-H460; first compound 1 µM): 0.43
- relative viability (NCI-H596; first compound 0.01 µM): 0.649
- relative viability (NCI-H596; first compound 0.03162 µM): 0.727
- relative viability (NCI-H596; first compound 0.1 µM): 0.635
- relative viability (NCI-H596; first compound 0.3162 µM): 0.723
- relative viability (NCI-H596; first compound 1 µM): 0.563
- relative viability (RERF-LC-KJ; first compound 0.01 µM): 1.01
- relative viability (RERF-LC-KJ; first compound 0.03162 µM): 0.92
- relative viability (RERF-LC-KJ; first compound 0.1 µM): 1.12
- relative viability (RERF-LC-KJ; first compound 0.3162 µM): 1.05
- relative viability (RERF-LC-KJ; first compound 1 µM): 0.963
- relative viability (NCI-H1792; first compound 0.01 µM): 0.547
- relative viability (NCI-H1792; first compound 0.03162 µM): 0.475
- relative viability (NCI-H1792; first compound 0.1 µM): 0.668
- relative viability (NCI-H1792; first compound 0.3162 µM): 0.77
- relative viability (NCI-H1792; first compound 1 µM): 0.317
- relative viability (NCI-H2347; first compound 0.01 µM): 0.585
- relative viability (NCI-H2347; first compound 0.03162 µM): 0.579
- relative viability (NCI-H2347; first compound 0.1 µM): 0.617
- relative viability (NCI-H2347; first compound 0.3162 µM): 0.655
- relative viability (NCI-H2347; first compound 1 µM): 0.602
- relative viability (NCI-H1651; first compound 0.01 µM): 0.193
- relative viability (NCI-H1651; first compound 0.03162 µM): 0.192
- relative viability (NCI-H1651; first compound 0.1 µM): 0.175
- relative viability (NCI-H1651; first compound 0.3162 µM): 0.203
- relative viability (NCI-H1651; first compound 1 µM): 0.183
- relative viability (NCI-H3122; first compound 0.01 µM): 0.642
- relative viability (NCI-H3122; first compound 0.03162 µM): 0.69
- relative viability (NCI-H3122; first compound 0.1 µM): 0.68
- relative viability (NCI-H3122; first compound 0.3162 µM): 0.647
- relative viability (NCI-H3122; first compound 1 µM): 0.71
- relative viability (NCI-H661; first compound 0.01 µM): 0.702
- relative viability (NCI-H661; first compound 0.03162 µM): 0.713
- relative viability (NCI-H661; first compound 0.1 µM): 0.788
- relative viability (NCI-H661; first compound 0.3162 µM): 0.822
- relative viability (NCI-H661; first compound 1 µM): 0.739
- relative viability (NCI-H1755; first compound 0.01 µM): 0.874
- relative viability (NCI-H1755; first compound 0.03162 µM): 0.947
- relative viability (NCI-H1755; first compound 0.1 µM): 0.958
- relative viability (NCI-H1755; first compound 0.3162 µM): 1.01
- relative viability (NCI-H1755; first compound 1 µM): 0.934
- relative viability (SW 900; first compound 0.01 µM): 0.834
- relative viability (SW 900; first compound 0.03162 µM): 0.901
- relative viability (SW 900; first compound 0.1 µM): 0.839
- relative viability (SW 900; first compound 0.3162 µM): 0.793
- relative viability (SW 900; first compound 1 µM): 0.592
- relative viability (NCI-H441; first compound 0.01 µM): 0.601
- relative viability (NCI-H441; first compound 0.03162 µM): 0.556
- relative viability (NCI-H441; first compound 0.1 µM): 0.531
- relative viability (NCI-H441; first compound 0.3162 µM): 0.715
- relative viability (NCI-H441; first compound 1 µM): 0.688

Reference: the supplement of paper PMC10307832
